Assay results from PubChem BioAssay AID248 (DTP/NCI, 2004).
Where “and” joins values, the source holds several entries; their conditions need not be identical. Equal entries are not always repeated. Inconclusive results and toxic doses are left out.

Test system: L1210 leukemia ip in BDF1 mice, survival T/C
Assay: NCI In Vivo Anticancer Drug Screen. Data for tumor model L1210 Leukemia (intraperitoneal) in B6D2F1 (BDF1) mice
Conditions: endpoint: mean survival time, higher = longer survival
Summary of the method: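 Tumor was transplanted into mice, which were then dosed with test compound or vehicle alone. Survival was recorded for each group, and the treated figure was expressed relative to the control figure.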

[1] = dose: 100.0 mg/kg/injection, schedule: Q04DX003 (ip), vehicle: saline with Tween-80
[2] = dose: 200.0 mg/kg/injection, schedule: Q04DX003 (ip), vehicle: saline with Tween-80
[3] = dose: 400.0 mg/kg/injection, schedule: Q04DX003 (ip), vehicle: saline with Tween-80
[4] = dose: 100.0 mg/kg/injection, schedule: Q04DX003 (ip), vehicle: saline
[5] = dose: 200.0 mg/kg/injection, schedule: Q04DX003 (ip), vehicle: saline
[6] = dose: 400.0 mg/kg/injection, schedule: Q04DX003 (ip), vehicle: saline
[7] = dose: 100.0 mg/kg/injection, schedule: Q04DX002 (ip), vehicle: Klucel (hydroxypropylcellulose) (HPC)
[8] = dose: 200.0 mg/kg/injection, schedule: Q04DX002 (ip), vehicle: Klucel (hydroxypropylcellulose) (HPC)
[9] = dose: 400.0 mg/kg/injection, schedule: Q04DX002 (ip), vehicle: Klucel (hydroxypropylcellulose) (HPC)

Nc1ccnc(OCc2ccccc2)n1
T/C (dose: 100.0 mg/kg/injection, schedule: Q01DX001 (ip), vehicle: saline with Tween-80): 100 % of control | T/C (dose: 200.0 mg/kg/injection, schedule: Q01DX001 (ip), vehicle: saline with Tween-80): 100 % of control

CC(C)NCC(=O)c1ccc(O)c(O)c1
T/C (dose: 20.0 mg/kg/injection, schedule: Q01DX Z (ip), vehicle: saline): 98 % of control | T/C (dose: 20.0 mg/kg/injection, schedule: Q#A X Z (ip), vehicle: methylcellulose (MC)): 96 % of control | T/C (dose: 25.0 mg/kg/injection, schedule: Q01DX Z (ip), vehicle: carboxymethylcellulose (CMC)): 107 % of control | T/C (dose: 25.0 mg/kg/injection, schedule: Q03DX Z (ip), vehicle: carboxymethylcellulose (CMC)): 93 % of control | T/C (dose: 29.0 mg/kg/injection, schedule: Q03HX024 (ip), vehicle: saline): 95 % of control | T/C (dose: 31.0 mg/kg/injection, schedule: Q01DX Z (ip), vehicle: carboxymethylcellulose (CMC)): 106 % of control | T/C (dose: 40.0 mg/kg/injection, schedule: Q01DX Z (ip), vehicle: saline): 107 % of control and 89 % of control | T/C (dose: 43.0 mg/kg/injection, schedule: Q03HX024 (ip), vehicle: saline): 104 % of control | T/C (dose: 49.0 mg/kg/injection, schedule: Q01DX Z (ip), vehicle: saline): 122 % of control | T/C (dose: 50.0 mg/kg/injection, schedule: Q01DX001 (ip), vehicle: saline): 96 % of control | T/C (dose: 50.0 mg/kg/injection, schedule: Q01DX Z (ip), vehicle: carboxymethylcellulose (CMC)): 104 % of control | T/C (dose: 50.0 mg/kg/injection, schedule: Q03DX Z (ip), vehicle: carboxymethylcellulose (CMC)): 93 % of control | T/C (dose: 59.0 mg/kg/injection, schedule: Q04DX003 (ip), vehicle: saline): 94 % of control | T/C (dose: 62.0 mg/kg/injection, schedule: Q01DX Z (ip), vehicle: carboxymethylcellulose (CMC)): 119 % of control | T/C (dose: 64.0 mg/kg/injection, schedule: Q03HX024 (ip), vehicle: saline): 105 % of control | T/C (dose: 80.0 mg/kg/injection, schedule: Q01DX Z (ip), vehicle: saline): 97 % of control and 119 % of control | T/C (dose: 88.0 mg/kg/injection, schedule: Q04DX003 (ip), vehicle: saline): 100 % of control | T/C (dose: 96.0 mg/kg/injection, schedule: Q03HX024 (ip), vehicle: saline): 106 % of control | T/C (dose: 100.0 mg/kg/injection, schedule: Q01DX001 (ip), vehicle: saline): 107 % of control | T/C (dose: 100.0 mg/kg/injection, schedule: Q01DX009 (ip), vehicle: saline): 104 % of control | T/C (dose: 100.0 mg/kg/injection, schedule: Q01DX Z (ip), vehicle: carboxymethylcellulose (CMC)): 115 % of control | T/C (dose: 100.0 mg/kg/injection, schedule: Q03DX Z (ip), vehicle: carboxymethylcellulose (CMC)): 100 % of control | T/C [4]: 103 % of control | T/C (dose: 120.0 mg/kg/injection, schedule: Q03DX Z (ip), vehicle: methylcellulose (MC)): 102 % of control | T/C (dose: 125.0 mg/kg/injection, schedule: Q01DX Z (ip), vehicle: carboxymethylcellulose (CMC)): 105 % of control | T/C (dose: 131.0 mg/kg/injection, schedule: Q04DX003 (ip), vehicle: saline): 98 % of control | T/C (dose: 143.0 mg/kg/injection, schedule: Q01DX009 (ip), vehicle: saline): 114 % of control | T/C (dose: 143.0 mg/kg/injection, schedule: Q03HX024 (ip), vehicle: saline): 101 % of control and 118 % of control | T/C (dose: 160.0 mg/kg/injection, schedule: Q01DX Z (ip), vehicle: saline): 104 % of control and 121 % of control | T/C (dose: 196.0 mg/kg/injection, schedule: Q04DX003 (ip), vehicle: saline): 104 % of control | T/C (dose: 200.0 mg/kg/injection, schedule: Q01DX001 (ip), vehicle: saline): 107 % of control | T/C (dose: 200.0 mg/kg/injection, schedule: Q01DX009 (ip), vehicle: saline): 115 % of control | T/C (dose: 200.0 mg/kg/injection, schedule: Q03DX Z (ip), vehicle: carboxymethylcellulose (CMC)): 100 % of control | T/C [5]: 109 % of control | T/C (dose: 210.0 mg/kg/injection, schedule: Q01DX009 (ip), vehicle: saline): 184 % of control | T/C (dose: 210.0 mg/kg/injection, schedule: Q03HX024 (ip), vehicle: saline): 116 % of control | T/C (dose: 240.0 mg/kg/injection, schedule: Q03DX Z (ip), vehicle: methylcellulose (MC)): 113 % of control | T/C (dose: 288.0 mg/kg/injection, schedule: Q01DX001 (ip), vehicle: saline): 102 % of control | T/C (dose: 288.0 mg/kg/injection, schedule: Q04DX003 (ip), vehicle: saline): 154 % of control | T/C (dose: 320.0 mg/kg/injection, schedule: Q01DX009 (ip), vehicle: saline): 104 % of control | T/C (dose: 320.0 mg/kg/injection, schedule: Q03HX024 (ip), vehicle: saline): 111 % of control | T/C (dose: 400.0 mg/kg/injection, schedule: Q01DX001 (ip), vehicle: saline): 107 % of control | T/C (dose: 400.0 mg/kg/injection, schedule: Q01DX009 (ip), vehicle: saline): 107 % of control | T/C (dose: 400.0 mg/kg/injection, schedule: Q01DX Z (ip), vehicle: carboxymethylcellulose (CMC)): 111 % of control | T/C (dose: 400.0 mg/kg/injection, schedule: Q03DX Z (ip), vehicle: carboxymethylcellulose (CMC)): 114 % of control | T/C [6]: 104 % of control | T/C (dose: 430.0 mg/kg/injection, schedule: Q04DX003 (ip), vehicle: saline): 103 % of control | T/C (dose: 478.0 mg/kg/injection, schedule: Q01DX009 (ip), vehicle: saline): 116 % of control | T/C (dose: 480.0 mg/kg/injection, schedule: Q03DX Z (ip), vehicle: methylcellulose (MC)): 102 % of control

CN(C)c1ccc(/C=C/C=C2\c3ccccc3-c3ccc([N+](=O)[O-])cc32)cc1
T/C [1]: 93 % of control | T/C [2]: 102 % of control | T/C [3]: 94 % of control

CCOC(=O)CC(C)(N)NC(N)=O (stereo not given)
T/C (dose: 100.0 mg/kg/injection, schedule: Q01DX009 (ip), vehicle: saline with Tween-80): 98 % of control | T/C [4]: 104 % of control | T/C (dose: 200.0 mg/kg/injection, schedule: Q01DX009 (ip), vehicle: saline with Tween-80): 93 % of control | T/C [5]: 106 % of control | T/C (dose: 400.0 mg/kg/injection, schedule: Q01DX009 (ip), vehicle: saline with Tween-80): 90 % of control | T/C [6]: 106 % of control

COc1ccc(NC(=O)NCCN(C)c2ccccc2)cc1
T/C (dose: 100.0 mg/kg/injection, schedule: Q01DX009 (ip), vehicle: Klucel (hydroxypropylcellulose) (HPC)): 93 % of control and 90 % of control | T/C [7]: 96 % of control and 101 % of control and 107 % of control | T/C (dose: 100.0 mg/kg/injection, schedule: Q04DX003 (ip), vehicle: Klucel (hydroxypropylcellulose) (HPC)): 98 % of control | T/C (dose: 200.0 mg/kg/injection, schedule: Q01DX009 (ip), vehicle: Klucel (hydroxypropylcellulose) (HPC)): 97 % of control and 104 % of control | T/C [8]: 98 % of control and 100 % of control and 104 % of control | T/C (dose: 200.0 mg/kg/injection, schedule: Q04DX003 (ip), vehicle: Klucel (hydroxypropylcellulose) (HPC)): 101 % of control | T/C (dose: 400.0 mg/kg/injection, schedule: Q01DX009 (ip), vehicle: Klucel (hydroxypropylcellulose) (HPC)): 100 % of control and 101 % of control | T/C [9]: 96 % of control and 101 % of control and 103 % of control | T/C (dose: 400.0 mg/kg/injection, schedule: Q04DX003 (ip), vehicle: Klucel (hydroxypropylcellulose) (HPC)): 98 % of control

C=C1c2ccccc2N(C)C1(COc1ccc(Br)cc1)OC(=O)c1cccc(Cl)c1 (stereo not given)
T/C [7]: 95 % of control | T/C [8]: 95 % of control | T/C [9]: 98 % of control

CNCCc1ccc2cc(OC)c(OC)cc2c1
T/C [1]: 91 % of control

CC(Cl)CN(Cc1cc(O)c(CN(CC(C)Cl)CC(C)Cl)cc1O)CC(C)Cl (stereo not given)
T/C (dose: 50.0 mg/kg/injection, schedule: Q01DX001 (ip), vehicle: carboxymethylcellulose (CMC)): 105 % of control | T/C (dose: 100.0 mg/kg/injection, schedule: Q01DX001 (ip), vehicle: carboxymethylcellulose (CMC)): 94 % of control | T/C (dose: 200.0 mg/kg/injection, schedule: Q01DX001 (ip), vehicle: carboxymethylcellulose (CMC)): 95 % of control | T/C (dose: 400.0 mg/kg/injection, schedule: Q01DX001 (ip), vehicle: carboxymethylcellulose (CMC)): 90 % of control
